Laboratory results published in patent US10350210B2, “EGFR and ALK dual inhibitor” (PRECEDO PHARMACEUTICALS CO., LTD, priority 2015, dated 2019).

Key:
[1] = system: PC-9; test: Effect on cell cycle (PI staining, flow cytometer), PC-9; assay type: cell-based, human; conditions: PC-9 (EGFR delE746_A750), 24 hours
Text: In order to study which growth phase the cell was halted after administration of the drugs, five cell lines including non-small cell lung cancer cell line A549 (expressing wild-type EGFR gene), non-small cell lung cancer cell line H1975 (expressing EGFR L858R/T790M double mutant gene), non-small cell Lung cancer cell line PC-9 (expressing EGFR delE746_A750 mutant gene), non-small cell lung cancer cell line H3255 (expressing EGFR L858R mutant gene) and non-small cell lung cancer cell NCI-H3122 (expressing ALK gene) were tested for effect of Compound 1 on cell cycle distribution. Two cell lines including non-small cell lung cancer cell NCI-H3122 (expressing ALK gene) and non-small cell lung cancer cell H1975 (expressing EGFR L858R/T790M double mutant gene) were tested for effect of Compound 10 on cell cycle distribution. […]

[2] = system: H3255; test: Effect on cell apoptosis (Western Blot, PARP and Caspase 3 cleavage), H3255; assay type: cell-based; conditions: H3255 (EGFR L858R), 24 hours
Text: (§1) In order to confirm whether the death of cells is through apoptosis or necrosis after administration of drugs, non-small cell lung cancer cell A549 (expressing wild-type EGFR gene), non-small cell lung cancer cell line H1975 (expressing EGFR L858R/T790M double mutant gene), non-small cell lung cancer cell line H3255 (expressing EGFR L858R mutant gene), non-small cell lung cancer cell line H3122 (expressing ALK gene) cell line, and non-small cell lung cancer cell line PC-9 (expressing EGFR delE746_A750 mutant gene) were tested for effect of Compound 1 on cleavage of poly ADP-ribose polymerase PARP which is a DNA repair enzyme and Caspase 3, which were closely related to cell apoptosis. […] Western Blot was used to detect the effect of various concentrations of drugs at various time points on cleavage of poly ADP-ribose polymerase PARP which is a DNA repair enzyme and Caspase 3.

[3] = system: BaF3-FL-EGFR-Del19; test: Cell growth (Cell Titer-Glo viability), BaF3-FL-EGFR-Del19; assay type: cell-based; conditions: Mus musculus; BaF3-FL-EGFR-Del19 (EGFR delE746_A750 mutant kinase), 72 hrs
How it was run: (§2)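 Cells are counted as viable by CellTiter-Glo chemiluminescence. Murine BaF3 lines depend on a stably transfected TEL-fused kinase after IL-3 withdrawal, and the NSCLC lines express mutant EGFR.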

[4] = system: HCC827; test: Growth of cancer cells (Cell Titer-Glo viability), HCC827; assay type: cell-based; conditions: Homo sapiens; HCC827 (mutant EGFR del19), 72 hrs
How it was run: as §2

[5] = system: PC-9; test: Effect on cell apoptosis (Western Blot, PARP and Caspase 3 cleavage), PC-9; assay type: cell-based, human; conditions: PC-9 (EGFR delE746_A750), 24 hours
Text: as §1

[6] = system: NCI-H2228; test: Growth of cancer cells (Cell Titer-Glo viability), NCI-H2228; assay type: cell-based; conditions: Homo sapiens; NCI-H2228 (wild-type ALK), 72 hrs

Structure (SMILES) | effect on cell cycle distribution [1] | concentration at which evident cleavage of PARP and Caspase 3 could be observed [2] | GI50 [3] | GI50 [4] | concentration at which evident cleavage of PARP and Caspase 3 could be observed [5] | GI50 [6]
C=CC(=O)Nc1cc(Nc2ncc(Cl)c(Nc3ccccc3S(=O)(=O)C(C)C)n2)c(OC)cc1N1CCN(CC)CC1 [Compound 1, N-(5-(5-chloro-4-(2-(isopropylsulfonyl)phenylamino)pyrimidin-2-ylamino)-2-(4-ethylpiperazin-1-yl)-4-methoxyphenyl)acrylamide] | halt the cells in G0-G1 phase | 0.03 µM | < 0.3 nM | 3 nM | 0.3 µM | –
C=CC(=O)Nc1cc(Nc2ncc(Cl)c(Nc3ccccc3S(=O)(=O)C(C)C)n2)c(OC)cc1N1CCCN(C)CC1 [Compound 10, N-(5-(5-chloro-4-(2-(isopropylsulfonyl)phenylamino)pyrimidin-2-ylamino)-4-methoxy-2-(4-methyl-1,4-homopiperazin-1-yl)phenyl)acrylamide] | – | – | – | – | – | < 3 nM
